From ChEMBL document CHEMBL5143665, “Discovery and preclinical evaluations of WX-0593, a novel ALK inhibitor targeting crizotinib-resistant mutations” (Bioorg Med Chem Lett, 2022)

Columns and labels:
[1] = Clearance in mouse at 1 mg/kg, iv; assay type: ADME, organism-based; conditions: in vivo
[2] = Volume of distribution at steady state in mouse at 1 mg/kg, iv; assay type: ADME, organism-based; conditions: in vivo, read-out: Vdss
[3] = Cmax in mouse at 10 mg/kg, po; assay type: ADME, organism-based; parameters: dose 10 mg/kg, route po; conditions: in vivo
[4] = AUC (0 to last) in mouse at 10 mg/kg, po; assay type: ADME, organism-based; parameters: time 0 - last, dose 10 mg/kg, route po; conditions: in vivo
[5] = Oral bioavailability in mouse at 10 mg/kg; assay type: ADME, organism-based; conditions: in vivo
[6] = Half-life in mouse at 1 mg/kg, iv; assay type: ADME, organism-based; conditions: in vivo
KARPAS-299 = experiment: cells; conditions: Homo sapiens
Description: Antiproliferative activity against human KARPAS-299 cells harbouring wild type ALK assessed as reduction in cell viability by Celltitre-Glo luminescent assay

| Compound | clearance [1] | Vd [2] | Cmax [3] | AUC(0-t) [4] | bioavailability [5] | half-life [6] | IC50 (KARPAS-299) |
| --- | --- | --- | --- | --- | --- | --- | --- |
| COc1cc(N2CCC3(CC2)CNC3)ccc1Nc1ncc(Cl)c(Nc2ccccc2P(C)(C)=O)n1 | 49 mL/min/kg | 1.7 L/kg | 113 ng/mL | 219 ng·h/mL | 5.2% | 1.5 h | 60 nM |
| COc1cc(N2CCC3(CCNC3)CC2)ccc1Nc1ncc(Cl)c(Nc2ccccc2P(C)(C)=O)n1 |  |  |  |  |  |  | 78 nM |
| COc1cc(N2CCC3(CCN(C)CC3)CC2)c(F)cc1Nc1ncc(Cl)c(Nc2ccccc2P(C)(C)=O)n1 |  |  |  |  |  |  | 15 nM |
